What was measured:
Format in all cases: in vivo
Parameters in all cases: key: 0 is no effect; 10 is complete control
[1] = tested on: bedstraw (Galium aparine); experiment: Test B pre-/postemergence; conditions: Rate 125 g/ha, Preemergence
Text: (§1) Seeds of bedstraw (Galium aparine), blackgrass (Alopecurus myosuroides), broadleaf signalgrass (Brachiaria decumbens), cocklebur (Xanthium strumarium), corn (Zea mays), crabgrass (Digitaria sanguinalis), giant foxtail (Setaria faberii), lambsquarters (Chenopodium album), momingglory (Ipomoea hederacea), pigweed (Amaranthus retroflexus), rape (Brassica napus), soybean (Glycine max), sugar beet (Beta vulgaris), velvetleaf (Abutilon theophrasti), wheat (Triticum aestivum), wild oat (Avena fatua) and purple nutsedge (Cyperus rotundus) tubers were planted and treated preemergence with test chemicals formulated in a non-phytotoxic solvent mixture which included a surfactant.
(§2) At the same time, these crop and weed species were also treated with postemergence applications of test chemicals formulated in the same manner. Plants ranged in height from 2 to 18 cm (1- to 4-leaf stage) for postemergence treatments. Plant species in the flood test consisted of rice (Oryza sativa), smallflower flatsedge (Cyperus difformis), duck salad (Heteranthera limosa) and bamyardgrass (Echinochloa crus-galli) grown to the 2-leaf stage for testing. Treated plants and controls were maintained in a greenhouse for twelve to sixteen days, after which all species were compared to controls and visually evaluated. Plant response ratings, summarized in Table B, are based on a scale of 0 to 10 where 0 is no effect and 10 is complete control. A dash (−) response means no test result.

[2] = tested on: blackgrass (Alopecurus myosuroides); experiment: Test B pre-/postemergence; conditions: for Plant response rating, Blackgrass: Preemergence; for Blackgrass plant response rating: Postemergence
Text: as §1, §2

[3] = tested on: broadleaf signalgrass (Brachiaria decumbens); experiment: Test B pre-/postemergence
Text: as §1, §2

[4] = tested on: cocklebur (Xanthium strumarium); experiment: Test B pre-/postemergence; conditions: for Cocklebur plant response rating: Postemergence
Text: as §1, §2

corn (Zea mays) = experiment: Test B pre-/postemergence; conditions: for Plant response rating, Corn: Preemergence; for Corn plant response rating: Postemergence
Text: as §1, §2

[5] = tested on: crabgrass (Digitaria sanguinalis); experiment: Test B pre-/postemergence; conditions: for Plant response rating, Crabgrass: Preemergence; for Crabgrass plant response rating: Postemergence
Text: as §1, §2

[6] = tested on: giant foxtail (Setaria faberii); experiment: Test B pre-/postemergence; conditions: for Plant response rating, Giant foxtail: Preemergence; for Giant foxtail plant response rating: Postemergence
Text: as §1, §2

[7] = tested on: momingglory (Ipomoea hederacea); experiment: Test B pre-/postemergence; conditions: for Plant response rating, Morningglory: Preemergence; for Morningglory plant response rating: Postemergence
Text: as §1, §2

[8] = tested on: pigweed (Amaranthus retroflexus); experiment: Test B pre-/postemergence; conditions: for Plant response rating, Redroot pigweed: Preemergence; for Redroot pigweed plant response rating: Postemergence
Text: as §1, §2

rape (Brassica napus) = experiment: Test B pre-/postemergence; conditions: for Plant response rating, Rape: Preemergence; for Rape plant response rating: Postemergence
Text: as §1, §2

soybean (Glycine max) = experiment: Test B pre-/postemergence; conditions: for Plant response rating, Soybean: Preemergence; for Soybean plant response rating: Postemergence
Text: as §1, §2

[9] = tested on: sugar beet (Beta vulgaris); experiment: Test B pre-/postemergence; conditions: for Plant response rating, Sugarbeets: Preemergence; for Sugarbeets plant response rating: Postemergence
Text: as §1, §2

[10] = tested on: velvetleaf (Abutilon theophrasti); experiment: Test B pre-/postemergence; conditions: for Velvetleaf plant response rating: Postemergence
Text: as §1, §2

[11] = tested on: wheat (Triticum aestivum); experiment: Test B pre-/postemergence; conditions: for Plant response rating, Wheat: Preemergence; for Wheat plant response rating: Postemergence
Text: as §1, §2

wild oat (Avena fatua) = experiment: Test B pre-/postemergence; conditions: for Plant response rating, Wild oats: Preemergence; for Wild oats plant response rating: Postemergence
Text: as §1, §2

[12] = tested on: bamyardgrass (Echinochloa crus-galli); experiment: Test B flood test
Summary of the method: (§3)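 Flood test on plants grown to the 2-leaf stage; treated plants kept in greenhouse twelve to sixteen days, then visually rated against controls on a 0 (no effect) to 10 (complete control) scale.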

[13] = tested on: duck salad (Heteranthera limosa); experiment: Test B flood test
Summary of the method: as §3

rice (Oryza sativa) = experiment: Test B flood test
Summary of the method: as §3

[14] = tested on: smallflower flatsedge (Cyperus difformis); experiment: Test B flood test
Summary of the method: as §3

[15] = Rate 62 g/ha, Postemergence (flood test)
[16] = Rate 125 g/ha, Postemergence section (flood test species)
[17] = Rate 250 g/ha, Postemergence (flood test species)

SMILES: CCc1cnc(-n2cnc(C(F)(F)F)c2)nc1C(=O)c1cccc(OC(F)(F)F)c1 [Compound 71]
- Plant response rating, Bedstraw [1]: 1
- Plant response rating, Blackgrass ([2]; Rate 62 g/ha, scale of 0 to 10): 1
- Blackgrass plant response rating ([2]; Rate 62 g/ha): 2
- Blackgrass plant response rating ([2]; Rate 125 g/ha): 3
- Plant response rating, Blackgrass ([2]; Rate 125 g/ha): 2
- B. signalgrass plant response rating ([3]; Rate 62 g/ha, Postemergence): 2
- B. signalgrass plant response rating ([3]; Rate 62 g/ha, Preemergence): 0
- B. signalgrass plant response rating ([3]; Rate 125 g/ha, Postemergence): 2
- Plant response rating, B. signalgrass ([3]; Rate 125 g/ha, Preemergence): 2
- Cocklebur plant response rating ([4]; Rate 62 g/ha): 4
- Cocklebur plant response rating ([4]; Rate 125 g/ha): 4
- Plant response rating, Cocklebur ([4]; Rate 125 g/ha, Preemergence): 0
- Plant response rating, Corn (corn (Zea mays); Rate 62 g/ha, scale of 0 to 10): 1
- Corn plant response rating (corn (Zea mays); Rate 62 g/ha): 2
- Corn plant response rating (corn (Zea mays); Rate 125 g/ha): 3
- Plant response rating, Corn (corn (Zea mays); Rate 125 g/ha): 1
- Plant response rating, Crabgrass ([5]; Rate 62 g/ha, scale of 0 to 10): 2
- Crabgrass plant response rating ([5]; Rate 62 g/ha): 2
- Crabgrass plant response rating ([5]; Rate 125 g/ha): 3
- Plant response rating, Crabgrass ([5]; Rate 125 g/ha): 2
- Plant response rating, Giant foxtail ([6]; Rate 62 g/ha, scale of 0 to 10): 1
- Giant foxtail plant response rating ([6]; Rate 62 g/ha): 2
- Giant foxtail plant response rating ([6]; Rate 125 g/ha): 2
- Plant response rating, Giant foxtail ([6]; Rate 125 g/ha): 2
- Plant response rating, Morningglory ([7]; Rate 62 g/ha, scale of 0 to 10): 2
- Morningglory plant response rating ([7]; Rate 62 g/ha): 1
- Morningglory plant response rating ([7]; Rate 125 g/ha): 6
- Plant response rating, Morningglory ([7]; Rate 125 g/ha): 4
- Plant response rating, Redroot pigweed ([8]; Rate 62 g/ha, scale of 0 to 10): 6
- Redroot pigweed plant response rating ([8]; Rate 62 g/ha): 8
- Redroot pigweed plant response rating ([8]; Rate 125 g/ha): 8
- Plant response rating, Redroot pigweed ([8]; Rate 125 g/ha): 8
- Plant response rating, Rape (rape (Brassica napus); Rate 62 g/ha, scale of 0 to 10): 2
- Rape plant response rating (rape (Brassica napus); Rate 62 g/ha): 5
- Rape plant response rating (rape (Brassica napus); Rate 125 g/ha): 7
- Plant response rating, Rape (rape (Brassica napus); Rate 125 g/ha): 7
- Plant response rating, Soybean (soybean (Glycine max); Rate 62 g/ha, scale of 0 to 10): 0
- Soybean plant response rating (soybean (Glycine max); Rate 62 g/ha): 3
- Soybean plant response rating (soybean (Glycine max); Rate 125 g/ha): 4
- Plant response rating, Soybean (soybean (Glycine max); Rate 125 g/ha): 0
- Plant response rating, Sugarbeets ([9]; Rate 62 g/ha, scale of 0 to 10): 2
- Sugarbeets plant response rating ([9]; Rate 62 g/ha): 8
- Sugarbeets plant response rating ([9]; Rate 125 g/ha): 8
- Plant response rating, Sugarbeets ([9]; Rate 125 g/ha): 3
- Velvetleaf plant response rating ([10]; Rate 62 g/ha): 3
- Velvetleaf plant response rating ([10]; Rate 125 g/ha): 6
- Plant response rating, Velvetleaf ([10]; Rate 125 g/ha, Preemergence): 6
- Plant response rating, Wheat ([11]; Rate 62 g/ha, scale of 0 to 10): 1
- Wheat plant response rating ([11]; Rate 62 g/ha): 4
- Wheat plant response rating ([11]; Rate 125 g/ha): 4
- Plant response rating, Wheat ([11]; Rate 125 g/ha): 3
- Plant response rating, Wild oats (wild oat (Avena fatua); Rate 62 g/ha, scale of 0 to 10): 0
- Wild oats plant response rating (wild oat (Avena fatua); Rate 62 g/ha): 2
- Wild oats plant response rating (wild oat (Avena fatua); Rate 125 g/ha): 2
- Plant response rating, Wild oats (wild oat (Avena fatua); Rate 125 g/ha): 3
- Barnyardgrass plant response rating [12, 15]: 2
- Barnyardgrass plant response rating [12, 16]: 2
- Plant response rating, Barnyardgrass [12, 17]: 3
- Ducksalad plant response rating [13, 15]: 0
- Ducksalad plant response rating [13, 16]: 0
- Plant response rating, Ducksalad [13, 17]: 2
- Rice plant response rating (rice (Oryza sativa); [15]): 2
- Rice plant response rating (rice (Oryza sativa); [16]): 2
- Plant response rating, Rice (rice (Oryza sativa); [17]): 2
- S. Flatsedge plant response rating [14, 15]: 0
- S. Flatsedge plant response rating [14, 16]: 2
- Plant response rating, S. Flatsedge [14, 17]: 4

Source: patent US6525001B1, “Substituted pyrimidine and pyridine herbicides” (Mid-American Commercialization Corporation, priority 1997, dated 2003)
